Reference: patent US20050009865A1, “Quinoline derivative as diagnostic probe for disease with tau protein accumulation” (priority 2002, published 2005)
“Also recorded” adds a separate entry of the source.

Tests used:
[1] = Testing of acute toxicity, intravenous administration; details: male, Crj:CD1, mouse, in vivo, mice, observed up to 7 days, read-out: Maximum Tolerated Dose
Description: Acute toxicity of the inventive compounds was determined employing mice by intravenous administration. Male Crj:CD1 mice were used and divided into groups of 4 mice, with an average weight of each group of 30-34 g. Each compound was dissolved in saline, 1N HCl, or a mixture of 1N HCl/polyethylene glycol 400, and then diluted with distilled water for injection, and administered via tail vein. Up to 7 days after administration, observations were made.

[2] = Testing of blood-brain barrier permeability; format: in vivo; details: mice, two minutes after intravenous administration
Description: Compounds of the present invention were intravenously administered to mice to determine their in vivo blood-brain barrier permeability. • (1) Mice utilized S1c:ICR weighing 30-40 g (7 weeks old, n=3) (Nippon SLC). • (2) A test compound was dissolved in 1N HCl, and then diluted with purified water, and injected via tail vein. Two minutes after administration, the mice, under ether anesthesia, were subjected to taking blood from the abdominal aorta with a heparin-treated syringe and removing the brain. • (3) After taking blood, blood samples were centrifuged at 14,000 rpm at 4° C. for 10 minutes, and their supernatants were kept at −80° C. as plasma sample. The brain (including cerebellum) was kept at −80° C. after its removal. • (4) The plasma sample, when used, was thawed, diluted with purified water, and then applied to a conditioned C18 solid-phase extraction cartridge (bond elute C18, 200 mg, Lot. 070864, Varian), followed by elution with methyl alcohol. • (5) The brain material, when used, were subjected to measuring its wet weight with the brain remaining frozen, and saline was added for homogenization. The homogenate was centrifuged for 10 minutes, and the supernatant was applied to a conditioned C18 solid-phase extraction cartridge and eluted with methyl alcohol. • (6) The test compound was detected at its maximum absorbance (a UV/VIS detector, Waters) and fluorescence (an FS-8020 fluorometer, Tosoh) employing high performance liquid chromatography. • (7) For each of the plasma and brain, the content of the test compound in the plasma or brain (%ID (injected dose)/ml or g) was determined, relative to the administered-dose.

[3] = test system: neurofibrillary tangles (or phosphorylated tau protein); experiment: Staining of neurofibrillary tangles in brain sections of a patient with Alzheimer's disease (screening method); format: binding, human; details: for staining of neurofibrillary tangles (or phosphorylated tau protein): brain/hippocampus sections of Alzheimer's disease patient, 100 μM compound in 50% ethanol, fluorescence microscopy, compared with thioflavin S on adjacent section
Excerpt: (§1) The following explanation is made about a method for screening the inventive compounds. • (1) Temporal lobe or hippocampus specimens of the brain of a patient who had been definitely diagnosed pathologically as Alzheimer's disease and of a normal aged individual were used. These specimens were provided from Fukushimura Hospital, our joint research facility, with the consent to their use for research purpose received from the bereaved family of the patient (BF Research Laboratories Institutional Ethics Board Permission No. RS-99-02). • (2) The brain tissues embedded in paraffin were sliced 6 or 8 μm thick, extended on slides, and dried. The paraffin-embedded brain sections were deparaffined by washing sequentially with xylene (10 minutes, twice), 100% ethanol (5 minutes, twice), 95% ethanol (5 minutes, twice), and a stream of water (10 minutes). • (3) Pre-treatment for staining with compounds of the present invention involved treating the sections for eliminating self-fluorescence due to lipofuscin. First, the deparaffined sections were immersed into a 10% formalin solution for 60 minutes and washed with PBS (phosphate-buffered saline) for 5 minutes, followed by immersion into a 0.25% solution of KMnO4 for 90 minutes. After washing twice with PBS for 2 minutes each, the sections were immersed into a solution of 0.1% K2S2O5/oxalic acid for about 30 seconds each, and then washed three times with PBS for 2 minutes each. • (4) About 150 μl of a 100 μM solution of a compound of the present invention dissolved in 50% ethanol was added dropwise onto the sections and allowed the reaction to be carried out for 10 minutes. The sections were dipped into tap water five times, and then 50% ethanol three to five times, followed by immediate classification. After that, the sections were immersed into PBS for 60 minutes, enclosed with Fluor Save Reagent (Calbiochem), and examined under UV-B excitation using a fluorescent microscope (Nikon, Eclips E800). Pictures were taken using a digital camera (Plaroid [sic] PDMCII).
Immunostaining was carried out as follows: • (1) After the sections were deparaffined, the sections were washed twice with distilled water for 2 minutes each, tissues were marked with an Immunopen. About 150 μl of 3% hydrogen peroxide (diluted in methanol) was added dropwise and allowed to stand at room temperature for 10 minutes. • (2) The sections were-washed twice with cold PBS-Tween 20 for 5 minutes each, and two drops of blocking serum were added and allowed the reaction to be carried out at 37° C. for 30 minutes. Excess water was removed, and two drops of pSer422, an antibody specific to phosphorylated tau (Wako Phosphorylated Tau Immunohistostain Kit 299-57301) and allowed the reaction to be carried out overnight at 4° C. • (3) On the next day, the sections were washed five times with cold PBS-Tween 20 for 2 minutes each, and two drops of a solution of goat anti-rabbit IgG conjugated to biotin were added and allowed the reaction to be carried out at 37° C. for 1 hour. […]

senile plaques = experiment: Staining of senile plaques in hippocampus sections of the brain of a patient with Alzheimer's disease; format: binding, human; details: compared with thioflavin S on adjacent section
Excerpt: as §1

[4] = target: T1, Aβ1-40 taking β-sheet structures (Homo sapiens, UniProt P05067); experiment: Binding to amyloid β-protein on slides; details: Aβ1-40 on slides; 1 μM solution of test chemical
T1 construct: Aβ1-40 (Peptide Institute, Inc., Lot No. 520311, MW: 4329.8); purchased Peptide Institute, Inc. Lot No. 520311
T1 sequence (P05067 672-711 limits assumed): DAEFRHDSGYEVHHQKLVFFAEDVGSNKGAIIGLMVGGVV
Description: Properties of binding to amyloid β-protein were examined as follows: • (1) Aβ1-40 (Peptide Institute, Inc., Lot No. 520311, MW: 4329.8) was dissolved in 50 mM potassium phosphate buffer (pH 7.4) at a concentration of 500 μM, and incubated at 37° C. for 3 days or longer, thereby making the protein take β-sheet structures. • (2) After incubation, the Aβ solution was vortexed and diluted to 50 μM for use. • (3) 20 μl of the Aβ1-40 solution was dropped onto a poly-L-lysine-coated slide (MICRO SLIDE GLASS S7441, […]) and dried on an extender (Sakura PS-C2) at about 45° C. • (4) The Aβ1-40 on the slide was covered with 20 μl of 1 μM solution of a chemical to be tested, allowed to stand at room temperature for about 10 minutes, and then washed with a stream of water (tap water), followed by examination under a microscope.

Molecule | MTD at 7 days [1] | Brain content (blood-brain barrier permeability) [2] | Plasma content [2] | staining of neurofibrillary tangles (or phosphorylated tau protein) [3] | staining of phosphorylated tau protein recognized by pSer422 antibody ([3]; hippocampus sections of Alzheimer's disease patient, adjacent section immunostained with pSer422) | staining of senile plaques (senile plaques) | binding to Aβ1-40 taking β-sheet structures (fluorescence) [4]
CNc1ccc(-c2ccc3ccccc3n2)cc1 [BF-158, 2-(4-(methylamino)phenyl)quinoline] | ≥ 10 mg/kg | 9.7 % ID/g or ml | 1.8 % ID/g or ml | – | – | – | –
Nc1ccc(-c2ccc3ccccc3n2)cc1 [BF-170, 2-(4-(amino)phenyl)quinoline] | ≥ 10 mg/kg | 9.1 % ID/g or ml | 1.4 % ID/g or ml | stained only neurofibrillary tangles (or phosphorylated tau protein) | stained phosphorylated tau protein which was recognized by pSer422 | stained only neurofibrillary tangles (or phosphorylated tau protein) | hardly bound to this Aβ1-40 (fluorescence was not observed); also recorded: hardly bound to the Aβ1-40 protein (fluorescence was not observed)
CN(C)c1ccc(-c2ccc3ccccc3n2)cc1 [Compound N-310, 2-(4-(dimethylamino)phenyl)quinoline] | – | 15.0 % ID/g or ml | 1.0 % ID/g or ml | stained neurofibrillary tangles (or phosphorylated tau protein) | – | – | –
CCN(CC)c1ccc(-c2ccc3ccccc3n2)cc1 [Compound N-313, 2-(4-(diethylamino)phenyl)quinoline] | ≥ 10 mg/kg | 4.6 % ID/g or ml | 1.1 % ID/g or ml | stained neurofibrillary tangles (or phosphorylated tau protein) | – | – | –
Cc1ccc2ccc(-c3ccc(N(C)C)cc3)nc2c1 [SA-820, 2-(4-(dimethylamino)phenyl)-7-methylquinoline] | – | – | – | – | – | stained senile plaques (wedge-shaped arrowheads) with a clearly weaker degree than that of thioflavin S; also recorded: stained senile plaques (wedge-shaped arrowheads) with a clearly-weaker degree than that of thioflavin S | –
CN(C)c1ccc(-c2ccc3c(ccc4ccccc43)n2)cc1 [SA-821, 3-(4-(dimethylamino)phenyl)benzo(f)quinoline] | – | – | – | – | – | stained senile plaques (wedge-shaped arrowheads) with a clearly weaker degree than that of thioflavin S | –
Cc1ccc2c(c1)sc(-c1ccc(N(C)C)cc1)[n+]2C.[Cl-] [thioflavin T, reference compound] | – | – | – | – | – | – | significant binding to this Aβ1-40; also recorded: significant binding to the Aβ1-40 protein
thioflavin S [reference compound] | – | – | – | stained both senile plaques (wedge-shaped arrowheads) and neurofibrillary tangles (or phosphorylated tau protein); also recorded: stained both senile plaques and neurofibrillary tangles | – | stained both senile plaques (wedge-shaped arrowheads) and neurofibrillary tangles (or phosphorylated tau protein); also recorded: stained both senile plaques and neurofibrillary tangles | –
